Where “and” joins values, the source holds several entries; their conditions need not be identical. Equal entries are not always repeated.
Assay: xn = mol fraction of the nth substance listed

NCCCC(=O)O + O
viscosity, 100 kPa
Settings	x1 = 0.0004	x1 = 0.0007	x1 = 0.0008999	x1 = 0.001	x1 = 0.0018	x1 = 0.002695	x1 = 0.004484	x1 = 0.006266	x1 = 0.008927
298.15 K	–	–	0.905 mPa·s	–	–	0.935 mPa·s	0.963 mPa·s	0.991 mPa·s	1.03 mPa·s
308.15 K	0.723 mPa·s	0.728 mPa·s	0.732 mPa·s	0.731 mPa·s and 0.735 mPa·s	0.742 mPa·s	0.76 mPa·s	–	0.814 mPa·s	0.852 mPa·s
313.15 K	0.655 mPa·s	0.66 mPa·s	–	0.662 mPa·s and 0.666 mPa·s	0.672 mPa·s	–	–	–	–
318.15 K	0.599 mPa·s	0.603 mPa·s	0.605 mPa·s	0.605 mPa·s and 0.609 mPa·s	0.614 mPa·s	0.623 mPa·s	0.64 mPa·s	0.658 mPa·s	0.684 mPa·s

O=CC(Cl)(Cl)Cl + OCc1ccccc1
viscosity [mPa·s], 101 kPa
Settings	298.15 K	323.15 K
x1 = 0.0986	7.956	3.521
x1 = 0.1891	12.34	4.774
x1 = 0.2795	18.57	6.41
x1 = 0.3562	21.83	6.783
x1 = 0.4064	40.42	9.558
x1 = 0.4364	50.35	10.85
x1 = 0.4751	55.16	10.57
x1 = 0.493	54.24	10.21
x1 = 0.4998	51.18	10.01
x1 = 0.5395	39.89	8.491
x1 = 0.5925	24.53	6.78
x1 = 0.6679	9.262	3.796
x1 = 0.7564	2.888	1.639
x1 = 0.8827	2.072	1.307

ClC(Cl)Cl + CO
viscosity [mPa·s]
Settings	101 kPa	101.3 kPa
303 K, x1 = 0.096	–	0.5644
303 K, x1 = 0.1963	–	0.6289
303 K, x1 = 0.2971	–	0.6315
303 K, x1 = 0.4963	–	0.5872
303 K, x1 = 0.6952	–	0.5447
303 K, x1 = 0.9092	–	0.5211
303.15 K, x1 = 0.0499	0.59	–
303.15 K, x1 = 0.1326	0.642	–
303.15 K, x1 = 0.3228	0.653	–
303.15 K, x1 = 0.4234	0.634	–
303.15 K, x1 = 0.5123	0.621	–
303.15 K, x1 = 0.6981	0.608	–
303.15 K, x1 = 0.8262	0.61	–
303.15 K, x2 = 0.0625	0.509	0.509
303.15 K, x2 = 0.0947	0.5084	0.5084
303.15 K, x2 = 0.1406	0.5099	0.5099
303.15 K, x2 = 0.183	0.5138	0.5138
303.15 K, x2 = 0.2165	0.5168	0.5168
303.15 K, x2 = 0.3004	0.5296	0.5296
303.15 K, x2 = 0.3311	0.5343	0.5343
303.15 K, x2 = 0.3671	0.5424	0.5424
303.15 K, x2 = 0.3854	0.546	0.546
303.15 K, x2 = 0.4503	0.5601	0.5601
303.15 K, x2 = 0.5306	0.5764	0.5764
303.15 K, x2 = 0.615	0.5904	0.5904
303.15 K, x2 = 0.7056	0.5975	0.5975
303.15 K, x2 = 0.743	0.5962	0.5962
303.15 K, x2 = 0.8147	0.5864	0.5864
303.15 K, x2 = 0.8944	0.5613	0.5613
303.15 K, x2 = 0.9355	0.5417	0.5417
303.15 K, x2 = 0.961	0.5281	0.5281
311 K, x1 = 0.096	–	0.5043
311 K, x1 = 0.1963	–	0.5549
311 K, x1 = 0.2971	–	0.5593
311 K, x1 = 0.4963	–	0.5271
311 K, x1 = 0.6952	–	0.4971
311 K, x1 = 0.9092	–	0.4822
313.15 K, x1 = 0.0499	0.527	–
313.15 K, x1 = 0.1326	0.557	–
313.15 K, x1 = 0.3228	0.566	–
313.15 K, x1 = 0.4234	0.554	–
313.15 K, x1 = 0.5123	0.549	–
313.15 K, x1 = 0.6981	0.545	–
313.15 K, x1 = 0.8262	0.55	–
319 K, x1 = 0.096	–	0.4586
319 K, x1 = 0.1963	–	0.4932
319 K, x1 = 0.2971	–	0.5022
319 K, x1 = 0.4963	–	0.4779
319 K, x1 = 0.6952	–	0.4574
319 K, x1 = 0.9092	–	0.4489
323.15 K, x1 = 0.0499	0.439	–
323.15 K, x1 = 0.1326	0.448	–
323.15 K, x1 = 0.3228	0.451	–
323.15 K, x1 = 0.4234	0.468	–
323.15 K, x1 = 0.5123	0.474	–
323.15 K, x1 = 0.6981	0.482	–
323.15 K, x1 = 0.8262	0.496	–

CCCCCCCCCCCCCCCC + C1CCCCC1
viscosity [mPa·s]
Settings	298.15 K	323.15 K
100 kPa, x2 = 0.2	2.654	1.632
100 kPa, x2 = 0.4	2.239	1.399
100 kPa, x2 = 0.6	1.79	1.154
100 kPa, x2 = 0.8	1.326	0.8848
101.33 kPa, x1 = 0.0129	0.9348	–
101.33 kPa, x2 = 0.1809	2.717	–
101.33 kPa, x2 = 0.3339	2.395	–
101.33 kPa, x2 = 0.458	2.126	–
101.33 kPa, x2 = 0.557	1.892	–
101.33 kPa, x2 = 0.6415	1.709	–
101.33 kPa, x2 = 0.7087	1.549	–
101.33 kPa, x2 = 0.7738	1.39	–
101.33 kPa, x2 = 0.828	1.27	–
101.33 kPa, x2 = 0.8753	1.169	–
101.33 kPa, x2 = 0.9197	1.08	–
101.33 kPa, x2 = 0.9513	1.008	–

CC(=O)OCc1ccccc1 + CCCCO
viscosity [mPa·s], 101.33 kPa
Settings	x1 = 0.1023	x1 = 0.1976	x1 = 0.3075	x1 = 0.4014	x1 = 0.5022	x1 = 0.5973	x1 = 0.7048	x1 = 0.8005	x1 = 0.8914
293.15 K	2.803	2.748	2.685	2.633	2.578	2.527	2.471	2.422	2.376
303.15 K	2.224	2.18	2.129	2.087	2.043	2.002	1.957	1.918	1.881
313.15 K	1.66	1.641	1.619	1.6	1.581	1.562	1.542	1.524	1.507
323.15 K	1.104	1.116	1.131	1.144	1.158	1.172	1.187	1.201	1.214

From the CheMixHub viscosity set
